What was measured:
[1] = system: m2 receptors on CHO cells; assay: Expression of m2 receptors on transfected CHO cells (tritiated QNB binding); assay type: cell-based, Chinese hamster; details: for Antagonism by tamoxifen of the increase in muscarinic receptor number: in the presence of tamoxifen; for Effect on receptor expression, given as % increase compared to control (negative values in brackets): DMSO control
Description: 1. Chinese hamster ovary (CHO) cells transfected with the a DNA fragment coding for a muscarinic receptor. The cell line used for the majority of the experiments was a cell line expressing the m2 receptor.
1 CHO cell line experiments The effects of various compounds on the expression of m2 receptors on CHO cells transfected with DNA for the m2 receptor were investigated. Receptor. numbers were assayed using tritiated QNB binding and subtracting non-specific binding. Compounds were dissolved in DMSO and DMSO was used as a control. Compounds were tested at a range of final concentrations. Compounds were also tested in the presence and absence of tamoxifen to try to distinguish an estrogen receptor mediated mechanism. The results are summarized in the Table 2 below, where the compounds used in the invention appear in bold, and data on other sapogenins is given for comparative purposes: […]

[2] = system: muscarinic receptors on cardiac muscle cells; assay: Muscarinic receptor expression on cultured neonatal cardiac muscle cells (tritiated QNB binding); assay type: cell-based, Sprague Dawley rats
Excerpt: 3. Cultured cardiac muscle cells obtained from neonatal Sprague Dawley rats. The cardiac muscle cells express muscarinic receptors, typically m2. The level of these receptors falls on prolonged culture and the effects of compounds of interest in preventing the fall in receptor numbers was investigated.
3 Effects of compounds on cultured cardiac muscle cells. Cardiac muscle cells were isolated from the ventricular muscle of neonatal Sprague Dawley rats using standard techniques. Cells were cultured in vitro and muscarinic receptor numbers expressed on cell surfaces membrane fragments after homogenization of cells harvested at various time points were estimated using specific binding of tritiated QNB. […] The experiments were therefore designed to investigate the effects of the various compounds in inhibiting this decline in receptor numbers.

estrogen receptor = assay: Estrogenic activity
Excerpt: (§1) In identifying compounds that would have use in the treatment of SDAT and other diseases characterised by reductions in receptor numbers or synaptic transmission, the inventors have given consideration to the need to identify compounds that would have the desired effect but would be devoid of any estrogenic effects, as these would be unacceptable, particularly in male patients. A number of the compounds claimed to have activity in patent application DE 4303214A1 have marked estrogenic activity and are therefore unacceptable.

Progesterone receptor = target: T1, Progesterone receptor (Homo sapiens, UniProt P06401); assay: Activity at progesterone receptor
T1 sequence (P06401 1-933): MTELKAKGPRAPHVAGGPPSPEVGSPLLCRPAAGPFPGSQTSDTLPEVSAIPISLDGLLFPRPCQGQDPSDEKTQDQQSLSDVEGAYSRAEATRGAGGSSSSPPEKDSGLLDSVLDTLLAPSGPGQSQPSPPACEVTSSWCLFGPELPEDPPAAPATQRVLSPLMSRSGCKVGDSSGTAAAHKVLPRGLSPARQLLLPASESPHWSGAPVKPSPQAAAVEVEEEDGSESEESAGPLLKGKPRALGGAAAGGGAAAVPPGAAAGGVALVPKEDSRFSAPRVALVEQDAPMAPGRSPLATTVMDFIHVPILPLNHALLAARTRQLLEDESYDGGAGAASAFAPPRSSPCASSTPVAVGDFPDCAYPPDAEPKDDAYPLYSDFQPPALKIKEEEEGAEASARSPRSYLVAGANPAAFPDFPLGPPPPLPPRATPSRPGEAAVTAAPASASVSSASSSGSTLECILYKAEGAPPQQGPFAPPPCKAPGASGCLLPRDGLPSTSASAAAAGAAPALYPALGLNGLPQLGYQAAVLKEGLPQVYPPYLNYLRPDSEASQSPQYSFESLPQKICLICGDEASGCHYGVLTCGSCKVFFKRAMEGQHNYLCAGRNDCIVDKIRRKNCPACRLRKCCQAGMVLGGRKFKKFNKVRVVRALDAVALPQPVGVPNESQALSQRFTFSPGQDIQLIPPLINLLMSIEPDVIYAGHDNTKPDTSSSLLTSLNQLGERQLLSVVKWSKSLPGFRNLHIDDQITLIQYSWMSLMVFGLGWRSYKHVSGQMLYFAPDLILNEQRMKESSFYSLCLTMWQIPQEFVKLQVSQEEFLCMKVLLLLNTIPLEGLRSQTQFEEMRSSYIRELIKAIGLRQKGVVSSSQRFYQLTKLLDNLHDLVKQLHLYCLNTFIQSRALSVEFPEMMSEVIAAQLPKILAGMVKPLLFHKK
Excerpt: as §1

Glucocorticoid receptor = target: T2, Glucocorticoid receptor (Homo sapiens, UniProt P04150); assay: Activity at glucocorticoid receptor
T2 sequence (P04150 1-777): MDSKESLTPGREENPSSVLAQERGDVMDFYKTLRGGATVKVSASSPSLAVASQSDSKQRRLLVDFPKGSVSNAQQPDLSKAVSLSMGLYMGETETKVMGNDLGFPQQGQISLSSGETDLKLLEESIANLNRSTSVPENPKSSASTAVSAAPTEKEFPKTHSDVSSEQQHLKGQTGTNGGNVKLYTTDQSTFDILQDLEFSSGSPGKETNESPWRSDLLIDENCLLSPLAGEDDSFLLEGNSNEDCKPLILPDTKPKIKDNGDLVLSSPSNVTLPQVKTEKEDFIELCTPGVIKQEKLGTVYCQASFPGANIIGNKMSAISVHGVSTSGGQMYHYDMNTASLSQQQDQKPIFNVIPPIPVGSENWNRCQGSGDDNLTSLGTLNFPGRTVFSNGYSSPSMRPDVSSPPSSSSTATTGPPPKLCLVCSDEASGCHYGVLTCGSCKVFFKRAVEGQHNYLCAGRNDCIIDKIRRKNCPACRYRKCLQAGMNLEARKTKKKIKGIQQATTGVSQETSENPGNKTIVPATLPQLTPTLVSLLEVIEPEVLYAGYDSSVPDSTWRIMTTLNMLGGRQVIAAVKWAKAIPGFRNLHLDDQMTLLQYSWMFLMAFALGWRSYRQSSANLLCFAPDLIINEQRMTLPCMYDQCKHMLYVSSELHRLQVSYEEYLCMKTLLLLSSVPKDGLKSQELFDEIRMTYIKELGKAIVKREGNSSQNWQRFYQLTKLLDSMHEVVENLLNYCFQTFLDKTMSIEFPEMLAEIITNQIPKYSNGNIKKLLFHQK
Excerpt: as §1

Testosterone receptor = target: T3, Testosterone receptor (Homo sapiens, UniProt P10275); assay: Activity at testosterone receptor
T3 sequence (P10275 1-920): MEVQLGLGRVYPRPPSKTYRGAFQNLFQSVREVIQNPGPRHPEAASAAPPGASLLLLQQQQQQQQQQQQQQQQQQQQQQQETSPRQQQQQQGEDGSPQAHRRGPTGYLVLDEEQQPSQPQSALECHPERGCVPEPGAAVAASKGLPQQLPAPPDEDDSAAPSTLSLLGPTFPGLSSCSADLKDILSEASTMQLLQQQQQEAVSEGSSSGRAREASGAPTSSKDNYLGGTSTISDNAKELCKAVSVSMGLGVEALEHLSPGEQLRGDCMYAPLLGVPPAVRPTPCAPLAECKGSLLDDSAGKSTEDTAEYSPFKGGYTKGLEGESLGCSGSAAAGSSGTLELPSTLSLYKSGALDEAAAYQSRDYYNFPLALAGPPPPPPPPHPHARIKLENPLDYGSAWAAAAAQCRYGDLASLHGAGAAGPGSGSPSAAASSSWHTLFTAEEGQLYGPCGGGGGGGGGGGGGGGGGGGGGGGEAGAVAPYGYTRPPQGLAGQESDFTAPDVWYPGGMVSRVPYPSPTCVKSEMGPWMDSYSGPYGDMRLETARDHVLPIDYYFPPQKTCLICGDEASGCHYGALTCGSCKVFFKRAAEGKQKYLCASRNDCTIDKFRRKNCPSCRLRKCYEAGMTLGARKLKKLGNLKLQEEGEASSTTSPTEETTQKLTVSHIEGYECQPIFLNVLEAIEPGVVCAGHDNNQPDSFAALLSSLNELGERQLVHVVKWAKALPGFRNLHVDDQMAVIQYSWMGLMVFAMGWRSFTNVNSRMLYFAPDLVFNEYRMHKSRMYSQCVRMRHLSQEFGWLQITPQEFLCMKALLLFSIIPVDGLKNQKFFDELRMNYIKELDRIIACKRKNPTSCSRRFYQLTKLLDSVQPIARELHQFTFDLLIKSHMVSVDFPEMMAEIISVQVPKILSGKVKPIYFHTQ
Excerpt: as §1

[3] = molar concentration of compound 10^−5

Chain of m2 receptors on CHO cells (P08172 whole entry, the tested form may be a part): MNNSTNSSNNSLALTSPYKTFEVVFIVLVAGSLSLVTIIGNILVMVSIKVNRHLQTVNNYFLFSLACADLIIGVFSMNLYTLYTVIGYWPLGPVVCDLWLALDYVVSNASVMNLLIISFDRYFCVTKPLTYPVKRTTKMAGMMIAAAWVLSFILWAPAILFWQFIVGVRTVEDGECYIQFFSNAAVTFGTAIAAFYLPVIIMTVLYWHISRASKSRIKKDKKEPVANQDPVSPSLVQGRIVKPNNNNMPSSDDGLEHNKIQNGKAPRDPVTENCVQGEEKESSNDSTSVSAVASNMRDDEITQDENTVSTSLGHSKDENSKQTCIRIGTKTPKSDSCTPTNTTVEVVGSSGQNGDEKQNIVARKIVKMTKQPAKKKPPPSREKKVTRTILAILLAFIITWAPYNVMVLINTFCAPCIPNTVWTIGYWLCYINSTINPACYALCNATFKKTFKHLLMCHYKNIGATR

C[C@@H]1CC[C@@]2(OC1)O[C@H]1C[C@H]3[C@@H]4C[C@@H](O)[C@@]5(O)C[C@@H](O)CC[C@]5(C)[C@H]4CC[C@]3(C)[C@H]1[C@@H]2C [Anzurogenin D, Anzurogenin-D]
Antagonism by tamoxifen of the increase in muscarinic receptor number [1]: not antagonized by tamoxifen
Effect on receptor expression, given as % increase compared to control (negative values in brackets) [1, 3]: 22%
Concentration of compound causing a significant increase in number of receptors expressed on neonatal cardiac muscle after 10 days in vitro culture [2]: 10^−6 M
Estrogenic activity (estrogen receptor): do not display estrogenic activity
Activity at progesterone receptor (Progesterone receptor): neither compound was found to have any activity
Activity at glucocorticoid receptor (Glucocorticoid receptor): neither compound was found to have any activity
Activity at testosterone receptor (Testosterone receptor): neither compound was found to have any activity

C[C@H]1CC[C@@]2(OC1)O[C@H]1C[C@H]3[C@@H]4CC[C@@H]5C[C@@H](O)CC[C@]5(C)[C@H]4CC[C@]3(C)[C@H]1[C@@H]2C [Sarsasapogenin, reference compound]
Effect on receptor expression, given as % increase compared to control (negative values in brackets) [1, 3]: 34%
Concentration of compound causing a significant increase in number of receptors expressed on neonatal cardiac muscle after 10 days in vitro culture [2]: 10^−5 M

Astragaloside [reference compound]
Concentration of compound causing a significant increase in number of receptors expressed on neonatal cardiac muscle after 10 days in vitro culture [2]: 10^−5 M

Smilagenin
Antagonism by tamoxifen of the increase in muscarinic receptor number [1]: not antagonized by tamoxifen
Effect on receptor expression, given as % increase compared to control (negative values in brackets) [1, 3]: 57%
Effect on receptor expression, given as % increase compared to control (negative values in brackets) ([1]; molar concentration of compound 10^−6): 18%
Concentration of compound causing a significant increase in number of receptors expressed on neonatal cardiac muscle after 10 days in vitro culture [2]: 10^−6 M
Estrogenic activity (estrogen receptor): do not display estrogenic activity
Activity at progesterone receptor (Progesterone receptor): neither compound was found to have any activity
Activity at glucocorticoid receptor (Glucocorticoid receptor): neither compound was found to have any activity
Activity at testosterone receptor (Testosterone receptor): neither compound was found to have any activity
